Among the data in PubChem BioAssay AID256 (DTP/NCI, 2004) are T/C values, retold here.

Each structure is given as a SMILES string. Several values for one entry are separate records, joined by “and”; a condition that tells them apart may be missing. Identical values can stand only once. Toxic doses and inconclusive results are not listed.

The subject of this test is CD2F1 mice, L1210 leukemia ip, survival T/C. In words: NCI In Vivo Anticancer Drug Screen. Data for tumor model L1210 Leukemia (intraperitoneal) in CD2F1 (CDF1) mice. The settings on record: higher = longer survival. Put shortly:
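Tumor-bearing mice (transplanted tumor) were split into treated and vehicle control groups, and the measured endpoint of each treated group was divided by that of its vehicle controls.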

Setting [1] is: endpoint: mean survival time, dose: 100.0 mg/kg/injection, schedule: Q04DX003 (ip), vehicle: saline with Tween-80.
The mark [2] stands for this setting: endpoint: mean survival time, dose: 200.0 mg/kg/injection, schedule: Q04DX003 (ip), vehicle: saline with Tween-80.
Where [3] appears, read: endpoint: mean survival time, dose: 400.0 mg/kg/injection, schedule: Q04DX003 (ip), vehicle: saline with Tween-80.
[4] abbreviates: endpoint: mean survival time, dose: 100.0 mg/kg/injection, schedule: Q04DX002 (ip), vehicle: saline with Tween-80.
[5] abbreviates: endpoint: mean survival time, dose: 200.0 mg/kg/injection, schedule: Q04DX002 (ip), vehicle: saline with Tween-80.
Setting [6] is: endpoint: mean survival time, dose: 25.0 mg/kg/injection, schedule: Q04DX002 (ip), vehicle: saline with Tween-80.
Setting [7] is: endpoint: mean survival time, dose: 50.0 mg/kg/injection, schedule: Q04DX002 (ip), vehicle: saline with Tween-80.
Where [8] appears, read: endpoint: mean survival time, dose: 100.0 mg/kg/injection, schedule: Q01DX009 (ip), vehicle: saline with Tween-80.
Where [9] appears, read: endpoint: mean survival time, dose: 200.0 mg/kg/injection, schedule: Q01DX009 (ip), vehicle: saline with Tween-80.
[10] abbreviates: endpoint: mean survival time, dose: 400.0 mg/kg/injection, schedule: Q01DX009 (ip), vehicle: saline with Tween-80.

As to `COc1cccc(NC(=S)NC(Cc2ccccc2)c2ccccc2)c1` (centres undefined), the T/C runs as follows: (endpoint: mean survival time, dose: 100.0 mg/kg/injection, schedule: Q01DX001 (ip), vehicle: Klucel (hydroxypropylcellulose) (HPC)) 101 % of control; (endpoint: mean survival time, dose: 200.0 mg/kg/injection, schedule: Q01DX001 (ip), vehicle: Klucel (hydroxypropylcellulose) (HPC)) 91 % of control; (endpoint: mean survival time, dose: 400.0 mg/kg/injection, schedule: Q01DX001 (ip), vehicle: Klucel (hydroxypropylcellulose) (HPC)) 96 % of control.
For the compound `CNNC1CCC2C3CCc4cc(O)ccc4C3CCC12C` (centres undefined), the T/C (endpoint: mean survival time, dose: 12.5 mg/kg/injection, schedule: Q01DX009 (ip), vehicle: Klucel (hydroxypropylcellulose) (HPC)) is 91 % of control; the T/C (endpoint: mean survival time, dose: 25.0 mg/kg/injection, schedule: Q01DX009 (ip), vehicle: Klucel (hydroxypropylcellulose) (HPC)) is 94 % of control; the T/C (endpoint: mean survival time, dose: 50.0 mg/kg/injection, schedule: Q01DX009 (ip), vehicle: Klucel (hydroxypropylcellulose) (HPC)) was 91 % of control.
As to `O=C(CCc1ccc(O)cc1)N/N=C/c1ccc2c(c1)OCO2`, the T/C reads like this: under setting [1], 90 % of control; under setting [2], 90 % of control; under setting [3], 88 % of control.
As to `CN(C)N=Nc1cc(C#N)cc(C#N)c1`, the T/C (endpoint: mean survival time, dose: 79.0 mg/kg/injection, schedule: Q01DX009 (ip), vehicle: Klucel (hydroxypropylcellulose) (HPC)) was 110 % of control; the T/C (endpoint: mean survival time, dose: 118.0 mg/kg/injection, schedule: Q01DX009 (ip), vehicle: Klucel (hydroxypropylcellulose) (HPC)) was 110 % of control; the T/C (endpoint: mean survival time, dose: 177.0 mg/kg/injection, schedule: Q01DX009 (ip), vehicle: Klucel (hydroxypropylcellulose) (HPC)) was 119 % of control; the T/C (endpoint: mean survival time, dose: 266.0 mg/kg/injection, schedule: Q01DX009 (ip), vehicle: Klucel (hydroxypropylcellulose) (HPC)) was 113 % of control; the T/C (endpoint: mean survival time, dose: 400.0 mg/kg/injection, schedule: Q01DX009 (ip), vehicle: Klucel (hydroxypropylcellulose) (HPC)) was 89 % of control.
Consider `O=C(O)c1ccc(CC2CCC2)cc1`, for which the T/C under setting [4] was 96 % of control; the T/C under setting [5] was 96 % of control; the T/C (endpoint: mean survival time, dose: 400.0 mg/kg/injection, schedule: Q04DX002 (ip), vehicle: saline with Tween-80) was 89 % of control.
On to `CCOC(=O)C(CO)NC(=O)C[NH-].CCOC(=O)C(CO)NC(=O)C[NH-].[Cl][Pt+2][Cl]` (centres undefined), for which the T/C (endpoint: mean survival time, dose: 100.0 mg/kg/injection, schedule: Q04DX003 (ip), vehicle: saline) is 111 % of control; the T/C (endpoint: mean survival time, dose: 200.0 mg/kg/injection, schedule: Q04DX003 (ip), vehicle: saline) was 111 % of control; the T/C (endpoint: mean survival time, dose: 400.0 mg/kg/injection, schedule: Q04DX003 (ip), vehicle: saline) is 114 % of control.
For `CC(=O)Oc1cc2c(OC(C)=O)c(-c3c(C)cc4c(C(C)C)c(OC(C)=O)c(OC(C)=O)cc4c3OC(C)=O)c(C)cc2c(C(C)C)c1OC(C)=O`, the T/C is 100 % of control under setting [6], 96 % of control under setting [7] and 89 % of control under setting [4].
As for `CC(C/C=N/N1CCCCC1)Nc1ccnc2cc(Cl)ccc12` (centres undefined), the T/C reads like this: (endpoint: mean survival time, dose: 0.78 mg/kg/injection, schedule: Q01DX009 (ip), vehicle: saline with Tween-80) 95 % of control; (endpoint: mean survival time, dose: 1.56 mg/kg/injection, schedule: Q01DX009 (ip), vehicle: saline with Tween-80) 101 % of control; (endpoint: mean survival time, dose: 3.13 mg/kg/injection, schedule: Q01DX009 (ip), vehicle: saline with Tween-80) 102 % of control.
Regarding `COC(=O)c1ccc(C(=O)CC(=O)c2ccccc2)cc1`, the T/C by setting is: (endpoint: median survival time, dose: 25.0 mg/kg/injection, schedule: Q04DX003 (ip), vehicle: saline with Tween-80) 100 % of control; (endpoint: median survival time, dose: 50.0 mg/kg/injection, schedule: Q04DX003 (ip), vehicle: saline with Tween-80) 88 % of control; (endpoint: median survival time, dose: 100.0 mg/kg/injection, schedule: Q04DX003 (ip), vehicle: saline with Tween-80) 88 % of control; (endpoint: median survival time, dose: 200.0 mg/kg/injection, schedule: Q04DX003 (ip), vehicle: saline with Tween-80) 88 % of control.
With `COc1cc2c(c(OC)c1OC)-c1ccc(SC)c(=O)cc1C(N=C(NC1OCC(OC(C)=O)C(OC(C)=O)C1OC(C)=O)SN(NC(=O)OCc1ccccc1)C(=O)OCc1ccccc1)CC2` (centres undefined), the T/C (endpoint: mean survival time, dose: 100.0 mg/kg/injection, schedule: Q01DX001 (ip), vehicle: saline with Tween-80) was 92 % of control.
Take `Cc1sc2cc(N)ccc2[n+]1C`: the T/C is, setting by setting: (endpoint: mean survival time, dose: 12.5 mg/kg/injection, schedule: Q04DX002 (ip), vehicle: saline with Tween-80) 102 % of control; under setting [6], 98 % of control; under setting [7], 95 % of control; under setting [4], 98 % of control; under setting [5], 109 % of control.
As to `CC(=O)Oc1cc(C(C)(C)C)c(OC(C)=O)c(N=[N+]=[N-])c1C(C)(C)C`, the T/C by setting is: under setting [1], 96 % of control; under setting [2], 101 % of control; under setting [3], 96 % of control.
As for `CSc1ccc(N2C(N)=NC(N)=NC2(C)C)cc1`, the T/C was 95 % of control (endpoint: mean survival time, dose: 25.0 mg/kg/injection, schedule: Q04DX002 (ip), vehicle: saline) and 91 % of control (endpoint: mean survival time, dose: 50.0 mg/kg/injection, schedule: Q04DX002 (ip), vehicle: saline).
Regarding `O=C(NC1c2ccccc2-c2ccccc21)C(F)(F)F`, the T/C under setting [8] was 96 % of control; the T/C under setting [1] is 99 % of control; the T/C under setting [9] is 97 % of control; the T/C under setting [2] was 99 % of control; the T/C under setting [10] is 100 % of control; the T/C under setting [3] is 97 % of control.
On to `CC(=O)c1ccc(NCN2C(=O)c3ccccc3C2=O)cc1`, for which the T/C was 96 % of control under setting [8], 98 % of control under setting [9] and 98 % of control under setting [10].
For the compound `O=C(O)c1ccccn1`, the T/C is 102 % of control (endpoint: mean survival time, dose: 50.0 mg/kg/injection, schedule: Q04HX027 (ip), vehicle: saline) and 93 % of control (endpoint: mean survival time, dose: 100.0 mg/kg/injection, schedule: Q04HX027 (ip), vehicle: saline).
`CCOC(=O)Nc1ccccc1F`: the T/C by setting is: under setting [8], 98 % of control; under setting [9], 107 % of control; under setting [10], 95 % of control.
For the compound `ClCCCN1CCCCC1CCl` (centres undefined), the T/C is, setting by setting: (endpoint: mean survival time, dose: 3.12 mg/kg/injection, schedule: Q04DX003 (ip), vehicle: saline) 104 % of control; (endpoint: mean survival time, dose: 6.25 mg/kg/injection, schedule: Q04DX003 (ip), vehicle: saline) 113 % of control; (endpoint: mean survival time, dose: 25.0 mg/kg/injection, schedule: Q04DX003 (ip), vehicle: saline) 173 % of control.
Regarding `O=C(NCC1CCCC1)c1ccccc1`, the T/C reads like this: (endpoint: mean survival time, dose: 100.0 mg/kg/injection, schedule: Q01DX001 (ip), vehicle: saline) 95 % of control; (endpoint: mean survival time, dose: 200.0 mg/kg/injection, schedule: Q01DX001 (ip), vehicle: saline) 97 % of control; (endpoint: mean survival time, dose: 400.0 mg/kg/injection, schedule: Q01DX001 (ip), vehicle: saline) 89 % of control.
As for `OCC1OC(n2cnc3cncnc32)C(O)C1O` (centres undefined), the T/C (endpoint: mean survival time, dose: 0.78 mg/kg/injection, schedule: Q01DX009 (ip), vehicle: saline) was 94 % of control and 102 % of control; the T/C (endpoint: mean survival time, dose: 1.56 mg/kg/injection, schedule: Q01DX009 (ip), vehicle: saline) was 106 % of control and 112 % of control; the T/C (endpoint: mean survival time, dose: 3.12 mg/kg/injection, schedule: Q01DX009 (ip), vehicle: saline) is 103 % of control and 106 % of control; the T/C (endpoint: mean survival time, dose: 6.25 mg/kg/injection, schedule: Q01DX009 (ip), vehicle: saline) is 118 % of control and 89 % of control; the T/C (endpoint: mean survival time, dose: 12.5 mg/kg/injection, schedule: Q01DX009 (ip), vehicle: saline) was 106 % of control; the T/C (endpoint: mean survival time, dose: 25.0 mg/kg/injection, schedule: Q01DX009 (ip), vehicle: saline) was 119 % of control and 101 % of control.
For `O=C/C=C/C=O`, the T/C (endpoint: mean survival time, dose: 3.13 mg/kg/injection, schedule: Q01DX001 (ip), vehicle: suspension in saline) is 98 % of control; the T/C (endpoint: mean survival time, dose: 6.25 mg/kg/injection, schedule: Q01DX001 (ip), vehicle: saline with Tween-80) was 106 % of control; the T/C (endpoint: mean survival time, dose: 6.25 mg/kg/injection, schedule: Q01DX001 (ip), vehicle: suspension in saline) is 104 % of control; the T/C (endpoint: mean survival time, dose: 12.5 mg/kg/injection, schedule: Q01DX001 (ip), vehicle: saline with Tween-80) was 122 % of control; the T/C (endpoint: mean survival time, dose: 12.5 mg/kg/injection, schedule: Q01DX001 (ip), vehicle: suspension in saline) was 101 % of control; the T/C (endpoint: mean survival time, dose: 25.0 mg/kg/injection, schedule: Q01DX001 (ip), vehicle: suspension in saline) is 101 % of control.
As for `Clc1c(Cl)c(Cl)c(CSCc2c(Cl)c(Cl)c(Cl)c(Cl)c2Cl)c(Cl)c1Cl`, the T/C is 93 % of control under setting [8]; 91 % of control under setting [1]; 96 % of control under setting [9]; 96 % of control under setting [2]; 94 % of control under setting [10]; 90 % of control under setting [3].
